Laboratory results published in US20120149700A1, “2-CYANOPHENYL FUSED HETEROCYCLIC COMPOUNDS, AND COMPOSTIONS AND USES THEREOF” (priority 2007, published 2012).

Key:
P2X3 = molecular target: T1, P2X3 (Homo sapiens, UniProt P56373); assay: Calcium uptake assay (P2X antagonist assay, inhibition of agonist-induced calcium influx), P2X3; assay type: cell-based; conditions: inhibition of agonist-induced calcium influx in cells expressing the receptor
T1 construct: expressed in transfected cells; host or cells: e.g. HEK293 or 1321N1
T1 sequence (P56373 1-397): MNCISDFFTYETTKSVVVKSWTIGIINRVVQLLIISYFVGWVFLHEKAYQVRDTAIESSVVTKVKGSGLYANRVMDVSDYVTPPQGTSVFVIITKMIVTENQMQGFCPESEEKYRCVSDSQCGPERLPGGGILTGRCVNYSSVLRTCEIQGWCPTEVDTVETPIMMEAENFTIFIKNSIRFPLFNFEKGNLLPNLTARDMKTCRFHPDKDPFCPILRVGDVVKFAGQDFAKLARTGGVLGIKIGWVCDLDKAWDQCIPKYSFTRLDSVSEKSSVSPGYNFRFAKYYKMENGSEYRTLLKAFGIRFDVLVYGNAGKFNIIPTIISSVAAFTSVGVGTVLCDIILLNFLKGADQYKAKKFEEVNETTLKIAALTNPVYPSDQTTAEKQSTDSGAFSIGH
Text: (§1) The human P2X2/3 chimera clone is created as described by Neelands et al, and then cloned into an expression vector as above. Receptors are expressed in cells (e.g., HEK293 or 1321N1 (obtained from the ECACC)) via transient transfection using standard lipid mediated transfection, or by creation of stable transfectants for each receptor. For expression of the P2X2/3 heteromeric receptor, the P2X3 expression vector is stably transfected into a cell line already stably expressing P2X2. P2X2/3 heteromer function is isolated using pharmacological methods. Cell lines are maintained in DMEM+5% Glutamax, the appropriate level of selective antibiotic, and 10% heat inactivated FBS.
(§2) Functional activity of compounds at the P2X receptor is determined by measuring their ability to inhibit agonist-induced calcium influx. Compounds are tested for antagonist activity against the P2X2/3 chimera, the P2X3 homomer, or the P2X2/3 heteromer. At the start of each screening day, the agonist EC50 is determined. Compound % inhibition or IC50s are subsequently determined using a pre-determined agonist concentration (EC50-90 depending on cell line) as a stimulus. The agonists used are αβMeATP, ATP, or other ATP analogs. Compounds may be tested at concentrations ranging from 1 pM to 10 μM.
(§3) To test for antagonist activity, cells expressing the appropriate receptor are seeded onto 96 or 384 well plates 18-24 hours prior to assay. […] Plates are incubated at 37° C. and then equilibrated at room temperature. Antagonism of agonist-induced calcium influx is measured using a fluorescent imaging plate reader (e.g. FLIPR^TETRA, Molecular Devices, Sunnyvale, Calif.). The assay comprises two stages: a pre-treatment phase followed by a treatment phase. Compounds may be tested as follows: For the pre-treatment phase, 50 μL of 3× concentration of test compound in HBSS is added to cells containing 100 μL of dye loading media to achieve a final concentration of 1× test compound. For the treatment phase, at a set interval after pre-treatment (1-30 minutes), 50 μl, of 1× test compound plus 4× agonist solution is added, resulting in a final concentration of 1× compound and 1× agonist. […] Responses are measured as (peak fluorescence after agonist addition) minus (baseline fluorescence prior to treatment). Percent inhibition is calculated as follows: […]
(§4) IC50 values are determined by analyzing dose response data in a 4 parameter logistic fit using GraphPad Prizm.

P2X2/3 = molecular target: T2, P2X2/3 (Homo sapiens, UniProt P56373+Q9UBL9); assay: Calcium uptake assay (P2X antagonist assay, inhibition of agonist-induced calcium influx), P2X2/3; assay type: cell-based; conditions: inhibition of agonist-induced calcium influx in cells expressing the receptor
T2 construct: expressed in transfected cells; host or cells: cell line stably expressing P2X2, stably transfected with P2X3 (e.g. HEK293 or 1321N1)
T2 sequence (Q9UBL9 1-471): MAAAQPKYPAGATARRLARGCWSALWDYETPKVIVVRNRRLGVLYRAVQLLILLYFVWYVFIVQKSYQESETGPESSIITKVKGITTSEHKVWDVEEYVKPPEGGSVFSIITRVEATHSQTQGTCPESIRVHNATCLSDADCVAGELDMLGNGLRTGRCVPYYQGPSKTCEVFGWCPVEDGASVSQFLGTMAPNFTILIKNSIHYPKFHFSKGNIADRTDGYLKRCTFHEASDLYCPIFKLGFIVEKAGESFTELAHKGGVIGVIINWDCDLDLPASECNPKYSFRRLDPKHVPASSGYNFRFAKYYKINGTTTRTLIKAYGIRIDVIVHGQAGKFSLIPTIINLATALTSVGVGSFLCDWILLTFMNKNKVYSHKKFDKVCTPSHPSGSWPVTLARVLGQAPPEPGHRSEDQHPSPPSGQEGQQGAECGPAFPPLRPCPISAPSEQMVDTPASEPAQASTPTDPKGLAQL
T2 sequence (P56373 1-397): T1 sequence (P56373 1-397)
Text: as §1, §2, §3, §4

IC50 (P2X3) [nM]	IC50 (P2X2/3) [nM]	Compound
118	4890	N#Cc1cc(Cl)ccc1N1CCc2ncnc(NCc3ccc(C(F)(F)F)cn3)c2C1 [Compound 17, 5-Chloro-2-{4-[(5-trifluoromethyl-pyridin-2-ylmethyl)-amino]-7,8-dihydro-5H-pyrido[4,3-d]pyrimidin-6-yl}-benzonitrile]
90	903	N#Cc1cc(Cl)ccc1N1CCc2ncnc(N[C@H](CCO)c3ccc(C(F)(F)F)nc3)c2C1 [Compound 20, 5-Chloro-2-{4-[(R)-3-hydroxy-1-(6-trifluoromethyl-pyridin-3-yl)-propylamino]-7,8-dihydro-5H-pyrido[4,3-d]pyrimidin-6-yl}-benzonitrile]
96	1120	Cc1ccc(N2CCc3ncnc(NCc4ccc(C)c(N5CCOCC5)c4)c3C2)c(C#N)c1 [Compound 63, 5-Methyl-2-[4-(4-methyl-3-morpholin-4-yl-benzylamino)-7,8-dihydro-5H-pyrido[4,3-d]pyrimidin-6-yl]-benzonitrile]
187	> 10000	Cc1nc(C(F)(F)F)ccc1CNc1ncnc2c1CN(c1ccc(Cl)cc1C#N)CC2 [Compound 11, 5-Chloro-2-(4-((2-methyl-6-(trifluoromethyl)pyridin-3-yl)methylamino)-7,8-dihydropyrido[4,3-d]pyrimidin-6(5H)-yl)benzonitrile]
183	1090	Cc1ccc(N2CCc3ncnc(NCc4cccc(C#N)c4)c3C2)c(C#N)c1 [Compound 36, 2-[4-(3-Cyano-benzylamino)-7,8-dihydro-5H-pyrido[4,3-d]pyrimidin-6-yl]-5-methyl-benzonitrile]
34	67	Cc1ccc(N2CCc3ncnc(NCc4ccc5nccnc5c4)c3C2)c(C#N)c1 [Compound 79, 5-Methyl-2-(4-(quinoxalin-6-ylmethylamino)-7,8-dihydropyrido[4,3-d]pyrimidin-6(5H)-yl)benzonitrile]

Second part, the compound before the results:

Compound	IC50 (P2X3) [nM]	IC50 (P2X2/3) [nM]
N#Cc1cc(Cl)ccc1N1CCc2ncnc(N[C@H](CCO)c3ccc(C(F)F)nc3)c2C1 [Compound 62, 5-Chloro-2-{4-[(R)-1-(6-difluoromethyl-pyridin-3-yl)-3-hydroxy-propylamino]-7,8-dihydro-5H-pyrido[4,3-d]pyrimidin-6-yl}-benzonitrile]	32	273
Cc1ccc(N2CCc3ncnc(NCc4ccc5cccnc5c4)c3C2)c(C#N)c1 [Compound 92, 5-Methyl-2-(4-(quinolin-7-ylmethylamino)-7,8-dihydropyrido[4,3-d]pyrimidin-6(5H)-yl)benzonitrile]	20	24
CCc1ccc(CNc2ncnc3c2CN(c2ccc(C)cc2C#N)CC3)cn1 [Compound 33, 2-{4-[(6-Ethyl-pyridin-3-ylmethyl)-amino]-7,8-dihydro-5H-pyrido[4,3-d]pyrimidin-6-yl}-5-methyl-benzonitrile]	38	127
Cc1ccc(N2CCc3ncnc(NCc4ccc5ccccc5n4)c3C2)c(C#N)c1 [Compound 80, 5-Methyl-2-(4-(quinolin-2-ylmethylamino)-7,8-dihydropyrido[4,3-d]pyrimidin-6(5H)-yl)benzonitrile]	156	263
N#Cc1cc(Cl)ccc1N1CCc2ncnc(NCc3ccc(Cl)c(-n4cnnc4)c3)c2C1 [Compound 52, 5-Chloro-2-[4-(4-chloro-3-[1,2,4]triazol-4-yl-benzylamino)-7,8-dihydro-5H-pyrido[4,3-d]pyrimidin-6-yl]-benzonitrile]	41	286
